{"source": "patent US12337010B2", "about": "“Compositions and methods of treatment using nicotinamide mononucleotide” (Washington University, priority 2017, dated 2025)", "key": {"[1]": {"target": "T1, 5′-nucleotidase (Mus musculus, UniProt Q61503)", "T1 construct": "endogenous in cells; host or cells: primary hepatocytes from C57BL/6J mice", "T1 sequence (Q61503 29-551)": "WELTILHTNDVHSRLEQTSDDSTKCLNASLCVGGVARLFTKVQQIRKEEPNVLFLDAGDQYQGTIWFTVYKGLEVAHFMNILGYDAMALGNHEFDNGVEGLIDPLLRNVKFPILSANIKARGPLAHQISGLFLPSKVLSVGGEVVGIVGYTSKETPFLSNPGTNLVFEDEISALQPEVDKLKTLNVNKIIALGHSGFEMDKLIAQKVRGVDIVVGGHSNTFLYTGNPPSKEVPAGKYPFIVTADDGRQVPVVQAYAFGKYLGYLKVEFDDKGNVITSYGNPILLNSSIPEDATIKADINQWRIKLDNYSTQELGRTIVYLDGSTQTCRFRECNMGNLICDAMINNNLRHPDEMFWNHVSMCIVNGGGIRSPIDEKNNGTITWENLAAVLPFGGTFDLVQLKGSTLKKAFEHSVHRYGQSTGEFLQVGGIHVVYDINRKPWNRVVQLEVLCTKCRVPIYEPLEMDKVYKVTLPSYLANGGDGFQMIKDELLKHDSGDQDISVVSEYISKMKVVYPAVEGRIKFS", "assay": "5'-nucleotidase activity assay in intact primary hepatocytes (adenosine from AMP by HPLC)", "type": "cell-based", "details": "500 μM AOPCP, 100 μM AMP", "method": "The amounts of adenosine produced were determined by HPLC. […] Silencing efficiencies were evaluated by quantitative RT-PCR.\nAOPCP inhibits 5′-nucleotidase activity by 97%."}, "[2]": {"test_system": "GLP-1 secretion from the ileum", "assay": "GLP-1 secretion from ex vivo ileal explants (ELISA)", "type": "cell-based, mouse", "details": "ileal explants of 24-month-old female B6 mice, 20 μM, 4 h, vs 0.2% DMSO", "method": "GLP-1 measurement in plasma and in supernatants of ex vivo small intestine explant cultures. Blood was collected after 6 h refeeding (from 10 am to 4 pm) following 24 h fasting (from 9 am to 9 am) from tail veins of 2- or 24-month-old female Slc12a8 knockdown mice and their controls using EDTA-coated tubes. Blood was immediately chilled on ice, centrifuged at 5,000×g at 4° C., and plasma samples were stored at −80° C. Small intestines from gut-specific Slc12a8 knockdown female mice or 12-month-old Slc12a8KO female mice were cut into three segments of the duodenum, jejunum, and ileum with length ratios of 1:3:2 (Wang, H. H., et al., Hepatology, 2007, 45, 998-1006). […] GLP-1 levels in plasma and media were measured by GLP-1 Total ELISA Kit (EMD Millipore, MO) following the manufacturer's instruction. GLP-1 values were normalized by total protein content analyzed by Bradford assay.\nThe involvement of SIRT1 (Yoon, M. J., et al., Cell Metab., 2015 21, 706-717) and SIRT6 (Jiang, H. et al., Nature, 2013, 496, 110-113) in the observed increase in GLP-1 secretion was examined. […] GLP-1 levels were measured by ELISA in the supernatants from ex vivo ileal explants of 24-month-old female B6 mice cultured with 0.2% DMSO, 20 µM EX527 or 20 μM STK665401 for 4 h (n=3 mice, analyzed using ANOVA with Tukey's test)."}}}
{"compound": "Nc1ncnc2c1ncn2[C@@H]1O[C@H](COP(=O)(O)CP(=O)(O)O)[C@@H](O)[C@H]1O", "note": "[AOPCP, adenosine-5′-[α,β-methylene]diphosphate]", "values": [{"measurement": "inhibition of 5′-nucleotidase activity", "setting": "[1]", "result": 97, "unit": "%"}]}
{"compound": "Cn1c(=O)c2cc(S(=O)(=O)Nc3ccc(Cc4ccncc4)cc3)ccc2n(C)c1=O", "note": "[STK665401]", "values": [{"measurement": "GLP-1 secretion", "setting": "[2]", "result": "not"}]}
